Experimental data: PubChem BioAssay (NCI)
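Results reflect a 48-hour exposure of cells in 96-well plates to compound at five concentrations. Abbreviation: GI50, concentration required for 50% inhibition of growth. At the TGI there is no net growth.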

Legend:
Assay in all cases: DTP human tumour cell line panel, 48 h
[1] = tested on: ACHN renal
[2] = tested on: CAKI-1 renal
[3] = tested on: HCT-15 colon
[4] = tested on: HOP-62 NSCLC
[5] = tested on: LOX IMVI melanoma
[6] = tested on: MDA-MB-231 breast
[7] = tested on: MDA-N
[8] = tested on: NCI-H460 lung
[9] = tested on: SNB-75 CNS
[10] = tested on: LXFL 529 NSCLC

| SMILES | GI50 [1] [µM] | TGI [1] [µM] | TGI [2] [µM] | GI50 [3] [µM] | TGI [3] [µM] | GI50 [4] [µM] | TGI [4] [µM] | GI50 [5] [µM] | TGI [5] [µM] | TGI [6] [µM] | TGI [7] [µM] | TGI [8] [µM] | GI50 [9] [µM] | TGI [9] [µM] | GI50 [2] [µM] | GI50 [6] [µM] | GI50 [8] [µM] | TGI [10] [µM] |
| --- | --- | --- | --- | --- | --- | --- | --- | --- | --- | --- | --- | --- | --- | --- | --- | --- | --- | --- |
| O=C1c2c(O)cc(O)cc2OC(c2ccc(O)cc2O)C1O (stereo not given) | > 100 | > 100 | > 100 | > 100 | > 100 | > 100 | > 100 | > 100 | > 100 | > 100 | > 100 | > 100 | > 100 | > 100 |  |  |  |  |
| CCCCn1sc(=O)n(Cc2ccc(CNC(=O)OCc3ccc4c(Br)cc(Br)c(O)c4n3)cc2)c1=O | 0.505 | > 100 | > 100 | 0.468 | > 100 | 0.749 | > 100 | 0.403 | > 100 | > 51.1 |  | > 100 | 0.499 | > 100 | 0.609 | 0.475 | 0.395 |  |
| Cc1ccc2[nH]c3c(ncc4[nH]c5ccccc5c43)c2c1 |  | 30.3 | 31.6 |  |  |  | > 10 |  | 31.6 |  |  | 30.6 |  | 28.5 |  |  |  | 33.3 |
| CCCSC1=NC2C(N(CC)C(=O)N2CC)N1/N=C/C=C/c1ccccc1[N+](=O)[O-] (stereo not given) | 3.98 | > 100 | > 100 | 2.94 | > 100 | 3.79 | > 100 | 3.08 | 20.7 | 7.44 |  | > 100 | 2.26 | 54.7 | 2.93 | 2.35 | 3.45 |  |
| Cc1cc(C)nc(SC2=C(Nc3cccc(Cl)c3C)C(=O)N(Cc3ccccc3)C2=O)n1 | > 160 | > 160 | > 160 | > 160 | > 160 | > 160 | > 160 | > 160 | > 160 | > 160 |  | > 160 | > 160 | > 160 | > 160 | > 160 | > 160 |  |
| Cn1c(=S)c2[nH]c(SCCN3CCCC3)nc2n(C)c1=O |  | > 100 | > 100 |  | > 100 |  | > 100 |  | > 100 | > 100 | > 100 | > 100 |  | > 100 |  |  |  |  |
| Cc1ccc(S(=O)(=O)Cc2nc(-c3ccc(C(=O)NCc4cccnc4)cc3)oc2C)cc1 | 7.06 | > 100 | > 100 | 0.0524 | > 100 | 15.4 | > 88.8 | 8.12 | > 100 | > 100 |  | > 100 | 4.73 | 47.9 | 1.87 | 5.78 | 0.843 |  |
| C#CCOc1cccc(Nc2ncnc3ccc(NC(=O)CCl)cc23)c1 | 0.253 | 7.73 | 12.7 | 0.0709 | 15.1 | 4.2 | > 53.2 | 0.0933 | 3.89 | 30.8 |  | 3.08 | 1.87 | > 100 | 0.22 | 1.07 | 0.0723 |  |
